Measured values reported in ChEMBL document CHEMBL1649268, “Comparative in vitro activity profile of oritavancin against recent gram-positive clinical isolates” (2009).
Converted amounts (≈) assume the structure as drawn.

Columns and labels:
Streptococcus pneumoniae [1] = experiment: Antimicrobial activity against Streptococcus pneumoniae clinical isolates by broth microdilution method; type: functional
Streptococcus pneumoniae [2] = experiment: Antimicrobial activity against penicillin-susceptible Streptococcus pneumoniae clinical isolates by broth microdilution method; type: functional
Streptococcus pneumoniae [3] = experiment: Antimicrobial activity against penicillin-intermediate Streptococcus pneumoniae clinical isolates by broth microdilution method; type: functional
Streptococcus pneumoniae [4] = experiment: Antimicrobial activity against penicillin-resistant Streptococcus pneumoniae clinical isolates by broth microdilution method; type: functional
[5] = Antimicrobial activity against erythromycin-nonsusceptible Streptococcus Group G clinical isolates assessed as percent susceptible isolates by broth microdilution method; type: functional, Streptococcus sp. 'group G'
[6] = Antimicrobial activity against erythromycin-susceptible Streptococcus Group G clinical isolates assessed as percent susceptible isolates by broth microdilution method; type: functional, Streptococcus sp. 'group G'
[7] = Antimicrobial activity against erythromycin-nonsusceptible Streptococcus Group C clinical isolates assessed as percent susceptible isolates by broth microdilution method; type: functional, Streptococcus sp. 'group C'
[8] = Antimicrobial activity against erythromycin-susceptible Streptococcus Group C clinical isolates assessed as percent susceptible isolates by broth microdilution method; type: functional, Streptococcus sp. 'group C'
Streptococcus pyogenes [9] = experiment: Antimicrobial activity against erythromycin-nonsusceptible Streptococcus pyogenes clinical isolates assessed as percent susceptible isolates by broth microdilution method; type: functional
Streptococcus pyogenes [10] = experiment: Antimicrobial activity against erythromycin-susceptible Streptococcus pyogenes clinical isolates assessed as percent susceptible isolates by broth microdilution method; type: functional
Streptococcus pyogenes [11] = experiment: Antimicrobial activity against Streptococcus pyogenes clinical isolates assessed as percent susceptible isolates by broth microdilution method; type: functional
Streptococcus agalactiae [12] = experiment: Antimicrobial activity against erythromycin-nonsusceptible Streptococcus agalactiae clinical isolates assessed as percent susceptible isolates by broth microdilution method; type: functional
Streptococcus agalactiae [13] = experiment: Antimicrobial activity against erythromycin-susceptible Streptococcus agalactiae clinical isolates assessed as percent susceptible isolates by broth microdilution method; type: functional
Streptococcus agalactiae [14] = experiment: Antimicrobial activity against Streptococcus agalactiae clinical isolates assessed as percent susceptible isolates by broth microdilution method; type: functional
[15] = test system: Staphylococcus haemolyticus; experiment: Antimicrobial activity against oxacillin-resistant Staphylococcus haemolyticus clinical isolates assessed as percent susceptible isolates by broth microdilution method; type: functional
[16] = test system: Staphylococcus haemolyticus; experiment: Antimicrobial activity against oxacillin-susceptible Staphylococcus haemolyticus clinical isolates assessed as percent susceptible isolates by broth microdilution method; type: functional
[17] = test system: Staphylococcus haemolyticus; experiment: Antimicrobial activity against Staphylococcus haemolyticus clinical isolates assessed as percent susceptible isolates by broth microdilution method; type: functional
[18] = test system: Staphylococcus epidermidis; experiment: Antimicrobial activity against oxacillin-resistant Staphylococcus epidermidis clinical isolates assessed as percent susceptible isolates by broth microdilution method; type: functional
[19] = test system: Staphylococcus epidermidis; experiment: Antimicrobial activity against oxacillin-susceptible Staphylococcus epidermidis clinical isolates assessed as percent susceptible isolates by broth microdilution method; type: functional
[20] = test system: Staphylococcus epidermidis; experiment: Antimicrobial activity against Staphylococcus epidermidis clinical isolates assessed as percent susceptible isolates by broth microdilution method; type: functional
Staphylococcus aureus [21] = experiment: Antimicrobial activity against oxacillin-resistant Staphylococcus aureus clinical isolates assessed as percent susceptible isolates by broth microdilution method; type: functional
Staphylococcus aureus [22] = experiment: Antimicrobial activity against oxacillin-susceptible Staphylococcus aureus clinical isolates assessed as percent susceptible isolates by broth microdilution method; type: functional
Staphylococcus aureus [23] = experiment: Antimicrobial activity against Staphylococcus aureus clinical isolates assessed as percent susceptible isolates by broth microdilution method; type: functional
Streptococcus pneumoniae [24] = experiment: Antimicrobial activity against Streptococcus pneumoniae clinical isolates assessed as percent susceptible isolates by broth microdilution method; type: functional
Streptococcus pneumoniae [25] = experiment: Antimicrobial activity against penicillin-susceptible Streptococcus pneumoniae clinical isolates assessed as percent susceptible isolates by broth microdilution method; type: functional
Streptococcus pneumoniae [26] = experiment: Antimicrobial activity against penicillin-intermediate Streptococcus pneumoniae clinical isolates assessed as percent susceptible isolates by broth microdilution method; type: functional
Streptococcus pneumoniae [27] = experiment: Antimicrobial activity against penicillin-resistant Streptococcus pneumoniae clinical isolates assessed as percent susceptible isolates by broth microdilution method; type: functional
Streptococcus pyogenes [28] = experiment: Antimicrobial activity against erythromycin-nonsusceptible Streptococcus pyogenes clinical isolates assessed as resistant isolates by broth microdilution method; type: functional
Streptococcus pyogenes [29] = experiment: Antimicrobial activity against Streptococcus pyogenes clinical isolates assessed as resistant isolates by broth microdilution method; type: functional
Streptococcus agalactiae [30] = experiment: Antimicrobial activity against erythromycin-nonsusceptible Streptococcus agalactiae clinical isolates assessed as resistant isolates by broth microdilution method; type: functional
Streptococcus agalactiae [31] = experiment: Antimicrobial activity against Streptococcus agalactiae clinical isolates assessed as resistant isolates by broth microdilution method; type: functional
[32] = test system: Staphylococcus haemolyticus; experiment: Antimicrobial activity against oxacillin-resistant Staphylococcus haemolyticus clinical isolates assessed as resistant isolates by broth microdilution method; type: functional
[33] = test system: Staphylococcus haemolyticus; experiment: Antimicrobial activity against oxacillin-susceptible Staphylococcus haemolyticus clinical isolates assessed as resistant isolates by broth microdilution method; type: functional
[34] = test system: Staphylococcus haemolyticus; experiment: Antimicrobial activity against Staphylococcus haemolyticus clinical isolates assessed as resistant isolates by broth microdilution method; type: functional
[35] = test system: Staphylococcus epidermidis; experiment: Antimicrobial activity against oxacillin-resistant Staphylococcus epidermidis clinical isolates assessed as resistant isolates by broth microdilution method; type: functional
[36] = test system: Staphylococcus epidermidis; experiment: Antimicrobial activity against oxacillin-susceptible Staphylococcus epidermidis clinical isolates assessed as resistant isolates by broth microdilution method; type: functional
[37] = test system: Staphylococcus epidermidis; experiment: Antimicrobial activity against Staphylococcus epidermidis clinical isolates assessed as resistant isolates by broth microdilution method; type: functional
Staphylococcus aureus [38] = experiment: Antimicrobial activity against oxacillin-resistant Staphylococcus aureus clinical isolates assessed as resistant isolates by broth microdilution method; type: functional
Staphylococcus aureus [39] = experiment: Antimicrobial activity against oxacillin-susceptible Staphylococcus aureus clinical isolates assessed as resistant isolates by broth microdilution method; type: functional
Staphylococcus aureus [40] = experiment: Antimicrobial activity against Staphylococcus aureus clinical isolates assessed as resistant isolates by broth microdilution method; type: functional
Streptococcus pneumoniae [41] = experiment: Antimicrobial activity against Streptococcus pneumoniae clinical isolates assessed as resistant isolates by broth microdilution method; type: functional
Streptococcus pneumoniae [42] = experiment: Antimicrobial activity against penicillin-susceptible Streptococcus pneumoniae clinical isolates assessed as resistant isolates by broth microdilution method; type: functional
Streptococcus pneumoniae [43] = experiment: Antimicrobial activity against penicillin-intermediate Streptococcus pneumoniae clinical isolates assessed as resistant isolates by broth microdilution method; type: functional
Streptococcus pneumoniae [44] = experiment: Antimicrobial activity against penicillin-resistant Streptococcus pneumoniae clinical isolates assessed as resistant isolates by broth microdilution method; type: functional
Streptococcus [45] = experiment: Antimicrobial activity against erythromycin-nonsusceptible Streptococcus Group F clinical isolates by broth microdilution method; type: functional
Streptococcus [46] = experiment: Antimicrobial activity against erythromycin-susceptible Streptococcus Group F clinical isolates by broth microdilution method; type: functional
Streptococcus [47] = experiment: Antimicrobial activity against Streptococcus Group F clinical isolates by broth microdilution method; type: functional
[48] = Antimicrobial activity against erythromycin-nonsusceptible Streptococcus Group G clinical isolates by broth microdilution method; type: functional; settings: Streptococcus sp. 'group G'
[49] = Antimicrobial activity against erythromycin-susceptible Streptococcus Group G clinical isolates by broth microdilution method; type: functional; settings: Streptococcus sp. 'group G'
[50] = Antimicrobial activity against Streptococcus Group G clinical isolates by broth microdilution method; type: functional; settings: Streptococcus sp. 'group G'
[51] = Antimicrobial activity against erythromycin-nonsusceptible Streptococcus Group C clinical isolates by broth microdilution method; type: functional; settings: Streptococcus sp. 'group C'
[52] = Antimicrobial activity against erythromycin-susceptible Streptococcus Group C clinical isolates by broth microdilution method; type: functional; settings: Streptococcus sp. 'group C'
[53] = Antimicrobial activity against Streptococcus Group C clinical isolates by broth microdilution method; type: functional; settings: Streptococcus sp. 'group C'
Streptococcus pyogenes [54] = experiment: Antimicrobial activity against erythromycin-nonsusceptible Streptococcus pyogenes clinical isolates by broth microdilution method; type: functional
Streptococcus pyogenes [55] = experiment: Antimicrobial activity against erythromycin-susceptible Streptococcus pyogenes clinical isolates by broth microdilution method; type: functional
Streptococcus pyogenes [56] = experiment: Antimicrobial activity against Streptococcus pyogenes clinical isolates by broth microdilution method; type: functional
Streptococcus agalactiae [57] = experiment: Antimicrobial activity against erythromycin-nonsusceptible Streptococcus agalactiae clinical isolates by broth microdilution method; type: functional
Streptococcus agalactiae [58] = experiment: Antimicrobial activity against erythromycin-susceptible Streptococcus agalactiae clinical isolates by broth microdilution method; type: functional
Streptococcus agalactiae [59] = experiment: Antimicrobial activity against Streptococcus agalactiae clinical isolates by broth microdilution method; type: functional
[60] = test system: Staphylococcus haemolyticus; experiment: Antimicrobial activity against oxacillin-susceptible Staphylococcus haemolyticus clinical isolates by broth microdilution method; type: functional
[61] = test system: Staphylococcus haemolyticus; experiment: Antimicrobial activity against Staphylococcus haemolyticus clinical isolates by broth microdilution method; type: functional
[62] = test system: Staphylococcus epidermidis; experiment: Antimicrobial activity against oxacillin-resistant Staphylococcus epidermidis clinical isolates by broth microdilution method; type: functional
[63] = test system: Staphylococcus epidermidis; experiment: Antimicrobial activity against oxacillin-susceptible Staphylococcus epidermidis clinical isolates by broth microdilution method; type: functional
[64] = test system: Staphylococcus epidermidis; experiment: Antimicrobial activity against Staphylococcus epidermidis clinical isolates by broth microdilution method; type: functional
Staphylococcus aureus [65] = experiment: Antimicrobial activity against oxacillin-susceptible Staphylococcus aureus clinical isolates by broth microdilution method; type: functional
Staphylococcus aureus [66] = experiment: Antimicrobial activity against Staphylococcus aureus clinical isolates by broth microdilution method; type: functional

In the case of `CC[C@H]1OC(=O)[C@H](C)[C@@H](O[C@H]2C[C@@](C)(OC)[C@@H](O)[C@H](C)O2)[C@H](C)[C@@H](O[C@@H]2O[C@H](C)C[C@H](N(C)C)[C@H]2O)[C@](C)(O)C[C@@H](C)C(=O)[C@H](C)[C@@H](O)[C@]1(C)O` [ERYTHROMYCIN], the MIC90 (Streptococcus pneumoniae [1]) is reported as over 2 µg/mL, the MIC90 (Streptococcus pneumoniae [2]) is reported as over 2 µg/mL and the MIC90 (Streptococcus pneumoniae [3]) is reported as over 2 µg/mL. The MIC (Streptococcus pneumoniae [4]) was over 0.03 µg/mL, the Activity [5] was 0% and the Activity [6] was 100%. The Activity [7] was 0%, the Activity [8] was 100% and the Activity (Streptococcus pyogenes [9]) was 0%. The Activity (Streptococcus pyogenes [10]) was 100%, the Activity (Streptococcus pyogenes [11]) was 86.3% and the Activity (Streptococcus agalactiae [12]) was 0%. The Activity (Streptococcus agalactiae [13]) was 100%, the Activity (Streptococcus agalactiae [14]) was 70.6% and the Activity [15] was 11.7%. It also gave an Activity [16] of 48.6%, an Activity [17] of 21.6% and an Activity [18] of 24.1%. It also gave an Activity [19] of 53.8%, an Activity [20] of 32.2% and an Activity (Staphylococcus aureus [21]) of 8.4%. It also gave an Activity (Staphylococcus aureus [22]) of 60.7%, an Activity (Staphylococcus aureus [23]) of 32.6% and an Activity (Streptococcus pneumoniae [24]) of 67.3%. For the same compound, the Activity (Streptococcus pneumoniae [25]) was 88.1%, the Activity (Streptococcus pneumoniae [26]) was 41.2% and the Activity (Streptococcus pneumoniae [27]) was 14.9%. For the same compound, the Activity (Streptococcus pyogenes [28]) was 99.2%, the Activity (Streptococcus pyogenes [29]) was 13.6% and the Activity (Streptococcus agalactiae [30]) was 97.5%. For the same compound, the Activity (Streptococcus agalactiae [31]) was 28.7%, the Activity [32] was 88.3% and the Activity [33] was 51.4%. The Resistant isolates [34] was 78.4%, the “Percent of isolates resistant” value [35] was 75.3% and the “Percent of isolates resistant” value [36] was 45.4%. The “Percent of isolates resistant” value [37] was 67.2%, the Percent resistant isolates (Staphylococcus aureus [38]) was 90.5% and the “Percent of isolates resistant” value (Staphylococcus aureus [39]) was 35.9%. The Percent resistant isolates (Staphylococcus aureus [40]) was 65.3%, the Resistant isolates (Streptococcus pneumoniae [41]) was 32.4% and the “Percent of isolates resistant” value (Streptococcus pneumoniae [42]) was 11.6%. For the same compound, the “Percent of isolates resistant” value (Streptococcus pneumoniae [43]) was 58.8%, the “Percent of isolates resistant” value (Streptococcus pneumoniae [44]) was 84.5% and the MIC90 (Streptococcus [45]) was over 2 µg/mL. For the same compound, the MIC90 (Streptococcus [46]) was 0.06 µg/mL (≈ 0.0818 µM), the MIC90 (Streptococcus [47]) was 2 µg/mL (≈ 2.73 µM) and the MIC90 [48] was over 2 µg/mL. The MIC90 [49] was 0.06 µg/mL (≈ 0.0818 µM), the MIC90 [50] was 2 µg/mL (≈ 2.73 µM) and the MIC90 [51] was over 2 µg/mL. The MIC90 [52] was 0.06 µg/mL (≈ 0.0818 µM), the MIC90 [53] was 2 µg/mL (≈ 2.73 µM) and the MIC90 (Streptococcus pyogenes [54]) was over 2 µg/mL. It also gave an MIC90 (Streptococcus pyogenes [55]) of 0.06 µg/mL (≈ 0.0818 µM), an MIC90 (Streptococcus pyogenes [56]) of over 2 µg/mL and an MIC90 (Streptococcus agalactiae [57]) of over 2 µg/mL. The MIC90 (Streptococcus agalactiae [58]) was 0.06 µg/mL (≈ 0.0818 µM), the MIC90 (Streptococcus agalactiae [59]) was over 2 µg/mL and the MIC90 [60] was over 8 µg/mL. It also gave an MIC90 [61] of over 8 µg/mL, an MIC [62] of at least 0.12 µg/mL and an MIC90 [63] of over 8 µg/mL. It also gave an MIC90 [64] of over 8 µg/mL, an MIC90 (Staphylococcus aureus [65]) of over 8 µg/mL and an MIC90 (Staphylococcus aureus [66]) of over 8 µg/mL.
